Source: US10730863B2, “Bridged bicyclic compounds as farnesoid X receptor modulators” (BRISTOL-MYERS SQUIBB COMPANY, priority 2017, dated 2020)

Target: FXR (Homo sapiens (Human), UniProt Q96RI1)
Assay: FXR EC50 (FXR agonist activity reported with each example)
Format: cell-based

Chain of FXR (Q96RI1 262-486): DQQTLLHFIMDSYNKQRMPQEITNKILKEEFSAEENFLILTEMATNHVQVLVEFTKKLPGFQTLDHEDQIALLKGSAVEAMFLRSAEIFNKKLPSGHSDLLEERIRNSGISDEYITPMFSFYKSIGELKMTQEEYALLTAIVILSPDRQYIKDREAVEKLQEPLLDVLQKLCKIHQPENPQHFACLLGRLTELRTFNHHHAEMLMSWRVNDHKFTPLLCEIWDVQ

EC50 [nM] | SMILES
130 | O=C(O)c1ncc(OCC23CCC(OCc4c(-c5c(Cl)cncc5Cl)noc4C4CC4)(CC2)CC3)cc1C(F)(F)F [Example 285, 5-((4-((5-cyclopropyl-3-(3,5-dichloropyridin-4-yl)isoxazol-4-yl)methoxy)bicyclo[2.2.2]octan-1-yl)methoxy)-3-(trifluoromethyl)picolinic acid]
230 | NC(=O)c1cc(C(F)(F)F)c2cc(OCC34CCC(OCc5c(-c6c(Cl)cncc6Cl)noc5C5CC5)(CC3)CC4)ccc2n1 [Example 291, 6-((4-((5-cyclopropyl-3-(3,5-dichloropyridin-4-yl)isoxazol-4-yl)methoxy)bicyclo[2.2.2]octan-1-yl)methoxy)-4-(trifluoromethyl)quinoline-2-carboxamide]
16 | COCc1cc(OCC23CCC(OCc4c(-c5c(Cl)cncc5Cl)noc4C4CC4)(CC2)CC3)cnc1C(=O)O [Example 293, 5-((4-((5-cyclopropyl-3-(3,5-dichloropyridin-4-yl)isoxazol-4-yl)methoxy)bicyclo[2.2.2]octan-1-yl)methoxy)-3-(methoxymethyl)picolinic acid]
32 | CCOc1cc(OCC23CCC(OCc4c(-c5c(Cl)cncc5Cl)noc4C4CC4)(CC2)CC3)cnc1C(=O)O [Example 294, 5-((4-((5-cyclopropyl-3-(3,5-dichloropyridin-4-yl)isoxazol-4-yl)methoxy)bicyclo[2.2.2]octan-1-yl)methoxy)-3-ethoxypicolinic acid]
63 | O=C(O)c1ccc2nc(OCC34CCC(OCc5c(-c6c(Cl)cncc6Cl)noc5C5CC5)(CC3)CC4)ccc2n1 [Example 298, 6-((4-((5-cyclopropyl-3-(3,5-dichloropyridin-4-yl)isoxazol-4-yl)methoxy)bicyclo[2.2.2]octan-1-yl)methoxy)-1,5-naphthyridine-2-carboxylic acid]
57 | O=C(O)c1ncc(OCC23CCC(OCc4c(-c5c(Cl)cncc5Cl)noc4C4CC4)(CC2)CC3)cc1OCC(F)(F)F [Example 300, 5-((4-((5-cyclopropyl-3-(3,5-dichloropyridin-4-yl)isoxazol-4-yl)methoxy)bicyclo[2.2.2]octan-1-yl)methoxy)-3-(2,2,2-trifluoroethoxy)picolinic acid]
42 | COc1cc(OCC23CCC(OCc4c(-c5c(Cl)cncc5Cl)noc4C4CC4)(CC2)CC3)ncc1C(=O)O [Example 301, 6-((4-((5-cyclopropyl-3-(3,5-dichloropyridin-4-yl)isoxazol-4-yl)methoxy)bicyclo[2.2.2]octan-1-yl)methoxy)-4-methoxynicotinic acid]
20 | Cc1cc(C(=O)O)nc2c(F)cc(OCC34CCC(OCc5c(-c6c(Cl)cncc6Cl)noc5C5CC5)(CC3)CC4)cc12 [Example 307, 6-((4-((5-cyclopropyl-3-(3,5-dichloropyridin-4-yl)isoxazol-4-yl)methoxy)bicyclo[2.2.2]octan-1-yl)methoxy)-8-fluoro-4-methylquinoline-2-carboxylic acid]
9 | O=C(O)c1cc(C2CC2)c2cc(OCC34CCC(OCc5c(-c6c(Cl)cncc6Cl)noc5C5CC5)(CC3)CC4)cc(F)c2n1 [Example 311, 4-cyclopropyl-6-((4-((5-cyclopropyl-3-(3,5-dichloropyridin-4-yl)isoxazol-4-yl)methoxy)bicyclo[2.2.2]octan-1-yl)methoxy)-8-fluoroquinoline-2-carboxylic acid]
48 | CCOc1cc(C(=O)O)nc2cc(F)c(OCC34CCC(OCc5c(-c6c(Cl)cncc6Cl)noc5C5CC5)(CC3)CC4)cc12 [Example 313, 6-((4-((5-cyclopropyl-3-(3,5-dichloropyridin-4-yl)isoxazol-4-yl)methoxy)bicyclo[2.2.2]octan-1-yl)methoxy)-4-ethoxy-7-fluoroquinoline-2-carboxylic acid]
67 | O=C(O)c1cc(OCC2CC2)c2cc(OCC34CCC(OCc5c(-c6c(Cl)cncc6Cl)noc5C5CC5)(CC3)CC4)c(F)cc2n1 [Example 314, 6-((4-((5-cyclopropyl-3-(3,5-dichloropyridin-4-yl)isoxazol-4-yl)methoxy)bicyclo[2.2.2]octan-1-yl)methoxy)-4-(cyclopropylmethoxy)-7-fluoroquinoline-2-carboxylic acid]
7 | COc1cc(OCC23CCC(OCc4c(-c5c(Cl)cncc5Cl)noc4C4CC4)(CC2)CC3)cc(C(=O)O)c1 [Example 321, 3-((4-((5-cyclopropyl-3-(3,5-dichloropyridin-4-yl)isoxazol-4-yl)methoxy)bicyclo[2.2.2]octan-1-yl)methoxy)-5-methoxybenzoic acid]

The next lines start with the compound.

SMILES | EC50 [nM]
O=C(O)c1cc(OC(F)F)c2cc(OCC34CCC(OCc5c(-c6c(Cl)cncc6Cl)noc5C5CC5)(CC3)CC4)ccc2n1 [Example 284, 6-((4-((5-cyclopropyl-3-(3,5-dichloropyridin-4-yl)isoxazol-4-yl)methoxy)bicyclo[2.2.2]octan-1-yl)methoxy)-4-(difluoromethoxy)quinoline-2-carboxylic acid] | 8
CS(=O)(=O)NC(=O)c1cc(C(F)(F)F)c2cc(OCC34CCC(OCc5c(-c6c(Cl)cncc6Cl)noc5C5CC5)(CC3)CC4)ccc2n1 [Example 286] | 19
O=C(O)c1cc2ccc(OCC34CCC(OCc5c(-c6c(Cl)cncc6Cl)noc5C5CC5)(CC3)CC4)cc2cn1 [Example 287] | 96
O=C(O)c1cc(C(F)(F)F)c2cc(OCC34CCC(OCc5c(-c6ccccc6C(F)(F)F)noc5C5CC5)(CC3)CC4)ccc2n1 [Example 288] | 250
COc1cc(C(=O)O)nc2ccc(OCC34CCC(OCc5c(-c6ccccc6C(F)(F)F)noc5C5CC5)(CC3)CC4)cc12 [Example 289] | 150
O=C(O)c1cc(OCC23CCC(OCc4c(-c5ccccc5C(F)(F)F)noc4C4CC4)(CC2)CC3)ccc1F [Example 290] | 260
O=C(O)c1ncc(OCC23CCC(OCc4c(-c5c(Cl)cncc5Cl)noc4C4CC4)(CC2)CC3)c2ccccc12 [Example 292, 4-((4-((5-cyclopropyl-3-(3,5-dichloropyridin-4-yl)isoxazol-4-yl)methoxy)bicyclo[2.2.2]octan-1-yl)methoxy)isoquinoline-1-carboxylic acid] | 9
CCOc1cc(OCC23CCC(OCc4c(-c5c(Cl)cncc5Cl)noc4C4CC4)(CC2)CC3)cnc1C(N)=O [Example 295] | 230
O=C(O)c1ncc(OCC23CCC(OCc4c(-c5ccccc5C(F)(F)F)noc4C4CC4)(CC2)CC3)c2ccccc12 [Example 296] | 62
CCOc1cc(OCC23CCC(OCc4c(-c5ccccc5C(F)(F)F)noc4C4CC4)(CC2)CC3)cnc1C(=O)O [Example 297] | 543
CCOc1cc(OCC23CCC(OCc4c(-c5ccccc5C(F)(F)F)noc4C4CC4)(CC2)CC3)cnc1C(N)=O [Example 299] | 2300
O=C(O)c1ccc(OCC23CCC(OCc4c(-c5c(Cl)cncc5Cl)noc4C4CC4)(CC2)CC3)c2ncccc12 [Example 302] | 54
COc1cc(C(=O)O)nc2c(F)cc(OCC34CCC(OCc5c(-c6c(Cl)cncc6Cl)noc5C5CC5)(CC3)CC4)cc12 [Example 303, 6-((4-((5-cyclopropyl-3-(3,5-dichloropyridin-4-yl)isoxazol-4-yl)methoxy)bicyclo[2.2.2]octan-1-yl)methoxy)-8-fluoro-4-methoxyquinoline-2-carboxylic acid] | 24
CC(C)Oc1cc(C(=O)O)nc2c(F)cc(OCC34CCC(OCc5c(-c6c(Cl)cncc6Cl)noc5C5CC5)(CC3)CC4)cc12 [Example 304, 6-((4-((5-cyclopropyl-3-(3,5-dichloropyridin-4-yl)isoxazol-4-yl)methoxy)bicyclo[2.2.2]octan-1-yl)methoxy)-8-fluoro-4-isopropoxyquinoline-2-carboxylic acid] | 11
O=C(O)c1ccc(OCC23CCC(OCc4c(-c5ccccc5C(F)(F)F)noc4C4CC4)(CC2)CC3)c2ncccc12 [Example 305] | 104
CCOc1cc(C(=O)O)nc2c(F)cc(OCC34CCC(OCc5c(-c6c(Cl)cncc6Cl)noc5C5CC5)(CC3)CC4)cc12 [Example 306, 6-((4-((5-cyclopropyl-3-(3,5-dichloropyridin-4-yl)isoxazol-4-yl)methoxy)bicyclo[2.2.2]octan-1-yl)methoxy)-4-ethoxy-8-fluoroquinoline-2-carboxylic acid] | 11
O=C(O)c1cc(OC2CCC2)c2cc(OCC34CCC(OCc5c(-c6c(Cl)cncc6Cl)noc5C5CC5)(CC3)CC4)cc(F)c2n1 [Example 308, 4-cyclobutoxy-6-((4-((5-cyclopropyl-3-(3,5-dichloropyridin-4-yl)isoxazol-4-yl)methoxy)bicyclo[2.2.2]octan-1-yl)methoxy)-8-fluoroquinoline-2-carboxylic acid] | 12
CCCc1cc(C(=O)O)nc2c(F)cc(OCC34CCC(OCc5c(-c6c(Cl)cncc6Cl)noc5C5CC5)(CC3)CC4)cc12 [Example 309, 6-((4-((5-cyclopropyl-3-(3,5-dichloropyridin-4-yl)isoxazol-4-yl)methoxy)bicyclo[2.2.2]octan-1-yl)methoxy)-8-fluoro-4-propylquinoline-2-carboxylic acid] | 13
O=C(O)c1cc(OC2COC2)c2cc(OCC34CCC(OCc5c(-c6c(Cl)cncc6Cl)noc5C5CC5)(CC3)CC4)cc(F)c2n1 [Example 312, 6-((4-((5-cyclopropyl-3-(3,5-dichloropyridin-4-yl)isoxazol-4-yl)methoxy)bicyclo[2.2.2]octan-1-yl)methoxy)-8-fluoro-4-(oxetan-3-yloxy)quinoline-2-carboxylic acid] | 47
Cn1nc(OCC23CCC(OCc4c(-c5c(Cl)cncc5Cl)noc4C4CC4)(CC2)CC3)cc1C(=O)O [Example 315] | 340
CCn1nc(OCC23CCC(OCc4c(-c5c(Cl)cncc5Cl)noc4C4CC4)(CC2)CC3)cc1C(=O)O [Example 316] | 64
O=C(O)c1sc(OCC23CCC(OCc4c(-c5c(Cl)cncc5Cl)noc4C4CC4)(CC2)CC3)nc1C(F)(F)F [Example 317] | 210
Cc1nc(OCC23CCC(OCc4c(-c5c(Cl)cncc5Cl)noc4C4CC4)(CC2)CC3)sc1C(=O)O [Example 318] | 180
O=C(O)c1ccc(OCC23CCC(OCc4c(-c5c(Cl)cncc5Cl)noc4C4CC4)(CC2)CC3)cn1 [Example 319] | 270
O=C(O)c1ccc(OCC23CCC(OCc4c(-c5c(Cl)cncc5Cl)noc4C4CC4)(CC2)CC3)c(C(F)(F)F)c1 [Example 320] | 410
